Measurements published in patent US20240269120A1, “Method for Treating an Autoimmune and Inflammatory Disease” (Cellestia Biotech AG, priority 2021, published 2024).

Legend:
Treg cells = test: Treg expansion in activated human PBMC cultures (anti-CD3/anti-CD28, flow cytometry); type: cell-based; settings: anti-CD3 and anti-CD28, 96 hours, control 0%
Description: (§1) Human PBMCs and mouse splenocyte in vitro stimulation and treatment: Human peripheral blood mononuclear cells (PBMCs) and mouse splenocytes from donors were stimulated in vitro with anti-CD3 and anti-CD28 antibodies. The stimulated cells were simultaneously treated with compounds for 96 hours. The T cells were profiled for different cell surface and intracellular markers and proliferation by flow cytometry.
Flow cytometry analysis: Flow cytometry analysis was performed to quantify cell surface and intracellular markers expression and measure cell division index.
Viability staining: Cells were transferred into a 96 well conical bottom plate and washed with serum free PBS1×. Cells were incubated with Zombie NIR (Biolegend #423105)+FC block ([…]) for 20 minutes at 4° C. Cells were washed with staining medium (SM) (1×HBSS, 2.5 mM EDTA, 2% NBS
Cell surface marker staining: Cells were stained with antibodies against cell surface markers (CD3, CD4, CD8, CD25, Biolegend or ThermoFisher) for 20 minutes at 4° C. Cells were washed with SM before continuing with nuclear staining.
FOXP3 nuclear staining: Cells were fixed and permeabilized with Foxp3 Transcription Factor Staining Buffer Set (ThermoFisher #00-5523) for 20 minutes at room temperature. […] Results are finally analysed with the software FlowJo v.10.7.1.

IL-10 mRNA = test: Quantitative RT-PCR of splenocyte mRNA after in vivo dosing: IL-10; set-up: species or system mouse; settings: in vivo treated mice vs vehicle; p<0.05; FIG. 3
Description: FIG. 3: In vivo 6-(4-tert-butylphenoxy)pyridin-3-amine dosing leads to an upregulation of anti-inflammatory cytokine IL-10 mRNA in mouse spleen. […] Each bar represents the mean±SD (N=3 replicates). (*) p<0.05
In vivo treatment of mice and pharmacodynamic response: Mice experiments were performed in compliance with authorization to perform animal experiments (VD3323). Briefly, 6-8 weeks old wild type C57Bl6 mice were subcutaneously or intraperitoneally dosed with vehicle or compounds for different durations. Mice were sacrificed, spleens were harvested 24 hours post-last dosing. Splenocytes were analyzed for cell surface and intracellular markers expression using flow cytometry. RNA expression analyses were performed using quantitative real time PCR.

IFNG = test: ELISA of supernatant from activated human PBMC cultures: IFNG; type: cell-based; settings: control 0%
Description: as §1
ELISA assay: Supernatant from activated human PBMC cultures described above was separated from cells at the end of culture time. Key cytokines (IL-6, IFN-γ, IL-17) were quantified using sandwich ELISA reagents set (Diaclone) following manufacturer's instruction manual.

IL-10 = test: Cytokine profiling in human patient plasma (MSD): IL-10; type: in vivo; settings: vs baseline
Description: Cytokine profiling in human plasma samples: Plasma samples from patients treated with 6-(4-tert-butylphenoxy)pyridin-3-amine were collected and stored at −80° C. until analysed. Cytokine and chemokine profiling was performed using MesoScale Discovery (MSD) platform and three assay panels: 1) Pro-inflammatory panel human, 2) Human IL-6 assay S-Plex, 3) Human IL-10 assay S-Plex.

[1] = system: NSG mice injected with human PBMCs (GvHD); test: Humanized GvHD mouse model, ex vivo pre-treated PBMCs plus in vivo treatment; settings: sum of individual scores; label = ex vivo PBMC treatment/in vivo treatment; DMSO/Vehicle 7.8
Description: Humanized GvHD mouse model: 6-8 weeks old NSG mice were intraperitoneally injected with 10 million human peripheral blood mononuclear cells (PBMCs) as below:
A cumulative GvHD clinical score was calculated by addition of scores for individual parameters (e.g. cumulative score=BWL+posture+activity+fur texture+skin integrity+paleness).
Ex-vivo pre-treatment of PBMCs and in-vivo treatment of mice: Human PBMCs were ex-vivo treated with either DMSO or 6-(4-tert-butylphenoxy)pyridin-3-amine and then intraperitoneally injected into NSG mice. Mice were in vivo treated with different compounds as below: • i. DMSO ex vivo hPBMCs treatment (7 hrs), plus vehicle in vivo treatment • ii. DMSO ex vivo hPBMCs treatment (7 hrs), plus 6-(4-tert-butylphenoxy)pyridin-3-amine in vivo treatment for 3 days • iii. 6-(4-tert-butylphenoxy)pyridin-3-amine ex vivo hPBMCs treatment (7 hrs), plus 6-(4-tert-butylphenoxy)pyridin-3-amine in vivo treatment for 3 days • iv. DMSO ex vivo PBMCs treatment (7 hrs) plus Ruxolitinib in vivo treatment for 3 days • v. 6-(4-tert-butylphenoxy)pyridin-3-amine ex vivo hPBMCs treatment (7 hrs), plus Ruxolitinib in vivo treatment for 3 days
Following PBMC injections, mice were treated with vehicle or 6-(4-tert-butylphenoxy)pyridin-3-amine or Ruxolitinib starting at day 0. Mice were monitored from 60-85 days for symptoms of GvHD and scored according to a standard clinical scoring system for GvHD (Naserian et al., 2018) (see table 1) and a cumulative clinical score was obtained by addition of clinical score for individual parameters. A maximum score of 6 is measured when reaching endpoint. Cell proliferation assay: The effect of compounds on T cell proliferation was quantified using Cell trace violet (CTV). PBMCs/splenocytes were incubated with CTV for 20 minutes at 37° C. Cells were washed twice with RPMI complete medium. CTV labelled cells were stimulated with anti-CD3 and anti-CD28 antibodies and treated with control or compounds and cultured at 37° C. for 96 hours. The cell division index was measured by flow cytometry.

IL-6 = test: Cytokine analysis in allogeneic bone marrow transplant (LEGENDplex): IL-6; type: in vivo, mouse; settings: allo-BM+splenocyte transplanted mice, day 36, vs vehicle; FIG. 6
Description: Allogeneic Bone marrow transplant: Recipient Balb/c mice were irradiated twice 3.75Gy (T=0 and T=4 h) in an X-ray source irradiator before transplantation at T=8 h. Treatment with antibiotics (Nopil) and analgesic (Dafalgan) was supplemented to drinking water 4 days before injection. Irradiated recipient Balb/c mice were transplanted with 5 million T cell depleted bone marrow+1 million splenocytes. Allogeneic recipient animals were treated with vehicle or 6-(4-tert-butylphenoxy)pyridin-3-amine subcutaneously at 20 mg/kg for two days immediately after allo-BM transplant, given a 10 days treatment holiday to recover body weight loss due to whole body irradiation and then treatment continued at 20 mg/kg. […] Animals were monitored for symptoms of GvHD development (severe body weight loss, alopecia and diarrhea.
Cytokine analysis in allogeneic Bone marrow transplant: The recipient animals were bled on day 36 and blood plasma was extracted to determine inflammatory cytokine concentration (IFNγ, IL-6, IL-17a) by LEGENDplex™ multiplexed assay.

## CC(C)(C)c1ccc(Oc2ccc(N)cn2)cc1 [6-(4-tert-butylphenoxy)pyridin-3-amine]
Treg cells
  expansion of Treg cells: 112%
IL-10 mRNA
  IL-10 transcript in splenocytes: upregulation
IFNG
  Percentage downregulation of IFNG: 10%
IL-10
  Percentage upregulation of IL-10 in blood plasma: 60%
[1]
  Cumulative GvHD score: decreased cumulative GvHD score significantly
IL-6
  IL-6 in blood plasma: downregulation
